Data as given in patent US7771726B2, “Use of synthetic glycolipids as universal adjuvants for vaccines against cancer and infectious diseases” (New York University, priority 2003, dated 2010).

Assays:
[1] = system: human NKT cells; test: stimulation of human NKT cells; type: cell-based
[2] = system: Th1-type cytokines, IFN-γ and IL-12; Th2 cytokine, IL-4; test: cytokine production in vivo after administration to mice; details: as compared to α-GalCer
Description: (§1) As reported in copending U.S. patent application Ser. No. 10/206,155, α-Galactosylceramide (α-GalCer) is a glycolipid ligand for natural killer T (NKT) cells, which respond to the glycolipid and produce both interferon (IFN)-γ and interleukin (IL)-4. […] It has now been discovered that synthetic C-glycoside analogs of α-GalCer of general formula (I) act as an NKT cell ligand and display 100-1000 fold higher activity against tumor and malaria, by preferentially inducing the production of Th1-type cytokines, IFN-γ and IL-12, in vivo.

[3] = system: melanoma metastases; test: melanoma metastases disease model, activity compared to α-GalCer; type: in vivo, mice; details: disease model requiring Th1-type responses; relative to α-GalCer
Description: as §1

[4] = system: malaria; test: malaria disease model in mice, activity compared to α-GalCer; type: in vivo; details: disease model requiring Th1-type responses; relative to α-GalCer
Description: as §1

[5] = system: Gag-specific CD8+ and CD4+ T cell response; test: adjuvant activity with DNA vaccine encoding an HIV Gag sequence (FIGS. 3A and 3B); type: in vivo; details: for Gag-specific CD8+ T cell response: FIG. 3A
Description: FIGS. 3A and 3B depict the adjuvant activity of α-GalCer and CRONY 101, and the enhancement of a Gag-specific CD8+ T-cell response elicited by a DNA vaccine encoding an HIV-Gag sequence.
Further studies used a naked DNA plasmid encoding an HIV Gag sequence, as a vaccine.

[6] = system: malaria antigen-specific CD8+ T-cell responses; test: adjuvant activity with suboptimal dose of recombinant adenovirus expressing a malarial antigen (FIG. 2); type: in vivo, mice
Description: FIG. 2 depicts the adjuvant activity of CRONY 101, and the enhancement of a malaria-specific CD8+ T-cell response elicited by a recombinant adenovirus expressing a malaria antigen; and
In FIG. 2, the number of IFN secreting CD8+ T cells per million splenocytes is greater for CRONY 101 than for α-GalCer.
Thus, co-administration of α-C-GalCer to mice immunized with a suboptimal dose of a recombinant adenovirus expressing a malarial antigen enhanced protective antimalaria immunity and the level of malaria antigen-specific CD8^+ T-cell responses. Coadministration of 1 ng of CRONY 101 was compared to administration of 1 μg of α-GalCer.

[7] = system: murine NKT cells; test: stimulation of murine NKT cells; type: cell-based
[8] = system: HIV specific CD4+/CD8+ T-cell responses; test: adjuvant effects on DNA vaccination in mice (FIG. 1); type: in vivo
Description: FIG. 1 depicts the adjuvant effects of α-GalCer on DNA vaccination in mice, and the enhancement of HIV-specific CD4+/CD8+ T-Cell responses;
FIG. 1 depicts the adjuvant effects of the α-GalCer on DNA vaccination in mice.

[9] = system: mouse CD1d-restricted lymphocytes that express a semi-invariant TCR; details: Kawano et al., 1997; cited from earlier work
[10] = system: human CD1d-restricted lymphocytes that express a semi-invariant TCR; details: Kawano et al., 1997; cited from earlier work
[11] = DNA vaccine encoding an HIV Gag sequence
[12] = co-administration, mice immunized with suboptimal dose of recombinant adenovirus

Row | SMILES | stimulation of human NKT cells [1] | population of the Th2 cytokine, IL-4 [2] | production of the Th1-type cytokines [2] | more potent activity than α-GalCer, melanoma metastases [3] | more potent activity than α-GalCer, malaria [4] | Gag-specific CD8+ T cell response [5, 11] | Gag-specific CD4+ T cell response ([5]; FIG. 3B, DNA vaccine encoding a HIV-Gag sequence) | adjuvant activity compared with α-GalCer ([5]; FIGS. 3A and 3B, DNA vaccine encoding an HIV Gag sequence) | increased number of malaria specific CD8+ cells ([6]; 1 ng of CRONY 101 as compared to 1 μg of α-GalCer) | number of IFN secreting CD8+ T cells per million splenocytes ([6]; FIG. 2, compared with α-GalCer) | adjuvant activity compared with α-GalCer ([6]; FIG. 2, recombinant adenovirus expressing a malaria antigen) | level of malaria antigen-specific CD8+ T-cell responses [6, 12] | protective antimalaria immunity [6, 12] | stimulation of murine NKT cells [7] | HIV specific CD4+/CD8+ T-cell responses [8] | concentrations at which recognized [9] | concentrations at which recognized [10]
1 | CCCCCCCCCCCCCCCCCCCCCCCCCC(=O)N[C@@H](CCC1OC(CO)[C@H](O)C(O)[C@@H]1O)[C@H](O)[C@H](O)CCCCCCCCCCCCCC (stereo partly drawn) [CRONY 101, 3′S,4′S,5′R-3′-N-hexacosanoyl-4′,5′-dihydroxynonadecyl-α-C-D-galactopyranoside] | stimulate | decreased | prolonged production | 100 fold | 1000 fold | enhances | enhancing | more potent | ⅚ | greater | more potent | enhanced | enhanced | stimulate |  |  | 
2 | CCCCCCCCCCCCCCCCCCCCCCCCCC(=O)N[C@@H](CO[C@H]1O[C@H](CO)[C@H](O)[C@H](O)[C@H]1O)[C@H](O)[C@H](O)CCCCCCCCCCCCCC [α-GalCer, α-galactosyl-ceramide, reference compound] | stimulate |  |  |  |  | enhancement |  |  |  |  |  |  |  | stimulate | enhancement | picomolar | picomolar
